Laboratory results as given in patent publication US20240417406A1, “NITROGEN-CONTAINING TRICYCLIC COMPOUND AND PHARMACEUTICAL USE THEREOF” (JAPAN TOBACCO INC., priority 2021, published 2024).

Biological target: human PDHK2 (hPDHK2) (Homo sapiens (Human), UniProt Q15119)
Assay: Inhibitory action of PDHK2 activity (PDH/hPDHK2 complex, residual PDH activity by NADH absorbance at 340 nm)
Type: biochemical
Conditions: FLAG-tagged recombinant hPDHK2 with porcine heart PDH complex; PDHK reaction 45 min at room temperature
Protocol: In the case of human PDHK2 (hPDHK2, NCBI Reference Database Accession number NM_002611.4), modified hPDHK2 cDNA wherein FLAG-Tag sequence was added to the N terminal of hPDHK2 cDNA clone (pReceiver-M01/PDK2-GeneCopoeia) as the base was prepared by polymerase chain reaction (PCR) and ligated to the NdeI/EcoRI site of pET-17b vector (Merck KGaA, Catalog Number 69663-3). The recombinant construct was transformed into Escherichia coli DH5a. The recombinant clones were identified, and plasmid DNA was isolated and subjected to the DNA sequence analysis. One clone which had the expected nucleic acid sequence was selected for expression work.
For expression of hPDHK2 activity, Escherichia coli strain BL21(DE3) cells (Merck KGaA, Catalog Number 69450-4) were transformed with the pET17b vector containing modified hPDHK2 cDNA. The Escherichia coli were grown to an optical density 0.6 ([…]) at 30° C. Protein expression was induced by the addition of 500 μmol/L isopropyl-β-thiogalactopyranoside. The Escherichia coli were cultured at 20° C. for 17 to for 18 hr and harvested by centrifugation. The harvested Escherichia coli was resuspended in a suspension buffer (20 mmol/L HEPES-NaOH, 500 mmol/L sodium chloride, 1% ethylene glycol, 0.1% Pluronic (registered trademark) F-68 (pH 8.0), cOmplete, EDTA-free (Roche) (pH 8.0)), and disrupted by a microfluidizer M-110H (MIZUHO INDUSTRIAL CO., LTD.). The precipitate was removed by centrifugation and the supernatant was added to DDDDK-tagged Protein PURIFICATION GEL (MEDICAL & BIOLOGICAL LABORATORIES CO., LTD., Code No. 3329). DDDDK-tagged Protein PURIFICATION GEL was washed with a washing buffer (20 mmol/L HEPES-NaOH, 500 mmol/L sodium chloride, 1% ethylene glycol, 0.1% Pluronic F-68 (pH 8.0)) and the bound protein was eluted with elution buffer 1 (20 mmol/L HEPES-NaOH, 100 μg/mL peptide (amino acid sequence DYKDDDDK) (SEQ ID NO: 1), 500 mmol/L sodium chloride, 1% ethylene glycol, 0.1% Pluronic F-68 (pH 8.0)). The eluted fractions containing FLAG-Tagged protein were pooled, concentrated by an ultrafiltration method, added to a gel filtration column (HiLoad 26/60 Superdex 200 (GE Healthcare Life Sciences, Code No. 17-1070-01)), and eluted with elution buffer 2 (20 mmol/L HEPES-NaOH, 150 mmol/L sodium chloride, 0.5 mmol/L ethylenediaminetetraacetic acid (EDTA), 1% ethylene glycol, 0.1% Pluronic F-68 (pH 8.0)). The eluted fractions were pooled and preserved at −80° C.
PDH (porcine heart PDH complex, Sigma P7032) and 0.5 μg/mL hPDHK2 were mixed in an assay buffer (50 mmol/L 3-morpholinopropanesulfonic acid (pH 7.0), 20 mmol/L dipotassium hydrogen phosphate, 60 mmol/L potassium chloride, 2 mmol/L magnesium chloride, 0.4 mmol/L EDTA, 0.2% poloxamer, 2 mmol/L dithiothreitol) so that the final concentration of PDH was 0.025 U/mL, and the mixture was incubated at 4° C. overnight to obtain a PDH/hPDHK2 complex solution.
PDH was mixed with the assay buffer so that the final concentration was 0.025 U/mL, and the mixture was incubated at 4° C. overnight to prepare a PDH solution.
The test compounds were diluted with DMSO. […] DMSO (1.5 μL) was added to control wells instead of test compound. In addition, DMSO (1.5 μL) was added to blank wells instead of the test compound, and PDH solution was added instead of the PDH/hPDHK2 complex solution. To measure an inhibitory action of the test compound on the PDHK activity inherent in the PDH solution, a test compound was added and the PDH solution instead of the PDH/hPDHK2 complex solution was added to a blank+test compound well.
Then, 10 μL of substrates (5 mmol/L sodium pyruvate, 5 mmol/L Coenzyme A, 12 mmol/L NAD, 5 mmol/L thiamine pyrophosphate, diluted with assay buffer) were added. The mixture was incubated at room temperature for 90 min, and the residual PDH activity was measured.
The absorbance of each well at 340 nm was measured using a microplate reader to detect NADH produced by the PDH reaction. […]

| IC50 [nM] | Compound |
| --- | --- |
| 14.4 | C[C@H]1Cn2nc(OCC(C)(C)O)cc2-c2onc([C@@](C)(O)C(F)(F)F)c21 (racemic) [Example 14] |
| 10.9 | C[C@H]1Cn2nc(OCc3ccccc3)cc2-c2onc([C@@](C)(O)C(F)(F)F)c21 (racemic) [Example 15] |
| 12.2 | C[C@H]1Cc2c(cnn2C(C)(C)C)-c2onc([C@@](C)(O)C(F)(F)F)c21 (racemic) [Example 16] |
| 21.3 | C[C@H]1Cn2nccc2-c2onc([C@@](C)(O)C(F)(F)F)c21 (racemic) [Example 17] |
| 12.5 | C[C@H]1Cc2c(cnn2C2CC2)-c2onc([C@@](C)(O)C(F)(F)F)c21 (racemic) [Example 18] |
| 22.6 | C[C@H]1Cc2[nH]ncc2-c2onc([C@@](C)(O)C(F)(F)F)c21 (racemic) [Example 20] |
| 19.8 | C[C@H]1Cc2c(cnn2C(F)F)-c2onc([C@@](C)(O)C(F)(F)F)c21 (racemic) [Example 21] |
| 22.4 | C[C@H]1Cc2nn(C(F)F)cc2-c2onc([C@@](C)(O)C(F)(F)F)c21 (racemic) [Example 22] |
| 18.8 | C[C@H]1Cc2nn(C)cc2-c2onc([C@@](C)(O)C(F)(F)F)c21 (racemic) [Example 23] |
| 25.4 | C[C@H]1Cc2c(cnn2C)-c2onc([C@@](C)(O)C(F)(F)F)c21 (racemic) [Example 24] |
| 20.1 | C[C@H]1Cc2nn(CCC#N)cc2-c2onc([C@@](C)(O)C(F)(F)F)c21 (racemic) [Example 32] |
| 14.7 | C[C@H]1Cn2nc(OCCC(C)(C)O)cc2-c2onc([C@@](C)(O)C(F)(F)F)c21 (racemic) [Example 34] |
| 17.8 | C[C@H]1Cn2nc(OC3CCOCC3)cc2-c2onc([C@@](C)(O)C(F)(F)F)c21 (racemic) [Example 35] |
| 14 | C[C@H]1Cn2nc(O[C@H]3CCOC3)cc2-c2onc([C@@](C)(O)C(F)(F)F)c21 (racemic) [Example 36] |
| 17.2 | C[C@H]1Cn2nc(O[C@H]3CC[C@](C)(O)CC3)cc2-c2onc([C@@](C)(O)C(F)(F)F)c21 (racemic) [Example 37] |
| 25.2 | C[C@H]1Cc2nn(CC(C)(C)O)cc2-c2onc([C@@](C)(O)C(F)(F)F)c21 (racemic) [Example 38] |
| 14.4 | C[C@H]1Cc2c(cnn2CC(C)(C)O)-c2onc([C@@](C)(O)C(F)(F)F)c21 (racemic) [Example 39] |

| IC50 [nM] | Compound |
| --- | --- |
| 19.2 | C[C@H]1Cn2nc(OCC#N)cc2-c2onc([C@@](C)(O)C(F)(F)F)c21 (racemic) [Example 42] |
| 18.3 | C[C@H]1Cn2nc(OCF)cc2-c2onc([C@@](C)(O)C(F)(F)F)c21 (racemic) [Example 44] |
| 26.4 | C[C@H]1Cn2nc(OC(F)F)cc2-c2onc([C@@](C)(O)C(F)(F)F)c21 (racemic) [Example 45] |
| 15.9 | C[C@H]1Cn2nc(OCC3COC3)cc2-c2onc([C@@](C)(O)C(F)(F)F)c21 (racemic) [Example 46] |
| 25.8 | C[C@H]1Cn2nc(O[C@H]3C[C@](C)(C#N)C3)cc2-c2onc([C@@](C)(O)C(F)(F)F)c21 (racemic) [Example 47] |
| 18.1 | C[C@H]1Cn2nc(O[C@H]3C[C@@](C)(C#N)C3)cc2-c2onc([C@@](C)(O)C(F)(F)F)c21 (racemic) [Example 48] |
| 14.5 | C[C@H]1Cc2c(cnn2CC#N)-c2onc([C@@](C)(O)C(F)(F)F)c21 (racemic) [Example 50] |
| 13.7 | C[C@H]1Cc2c(cnn2C23CC(C#N)(C2)C3)-c2onc([C@@](C)(O)C(F)(F)F)c21 (racemic) [Example 51] |
| 15 | C[C@H]1Cn2nc(C3CCOCC3)cc2-c2onc([C@@](C)(O)C(F)(F)F)c21 (racemic) [Example 52] |
| 8.8 | C[C@H]1Cc2c(cnn2[C@H]2C[C@](C)(C#N)C2)-c2onc([C@@](C)(O)C(F)(F)F)c21 (racemic) [Example 53, (1S,3r)-1-methyl-3-((S)-4-methyl-3-((R)-1,1,1-trifluoro-2-hydroxypropan-2-yl)-4,5-dihydro-6H-isoxazolo[5,4-e]indazol-6-yl)cyclobutane-1-carbonitrile and enantiomer thereof] |
| 7.2 | C[C@H]1Cc2nn([C@H]3C[C@](C)(C#N)C3)cc2-c2onc([C@@](C)(O)C(F)(F)F)c21 (racemic) [Example 54, (1S,3r)-1-methyl-3-((S)-4-methyl-3-((R)-1,1,1-trifluoro-2-hydroxypropan-2-yl)-4,5-dihydro-7H-isoxazolo[5,4-e]indazol-7-yl)cyclobutane-1-carbonitrile and enantiomer thereof] |
| 14.3 | C[C@H]1Cc2nn([C@H]3CC[C@](C)(O)CC3)cc2-c2onc([C@@](C)(O)C(F)(F)F)c21 (racemic) [Example 55, (1S,4r)-1-methyl-4-((S)-4-methyl-3-((R)-1,1,1-trifluoro-2-hydroxypropan-2-yl)-4,5-dihydro-7H-isoxazolo[5,4-e]indazol-7-yl)cyclohexan-1-ol and enantiomer thereof] |
| 10.7 | C[C@H]1Cc2c(cnn2[C@H]2CC[C@](C)(O)CC2)-c2onc([C@@](C)(O)C(F)(F)F)c21 (racemic) [Example 56, (1S,4r)-1-methyl-4-((S)-4-methyl-3-((R)-1,1,1-trifluoro-2-hydroxypropan-2-yl)-4,5-dihydro-6H-isoxazolo[5,4-e]indazol-6-yl)cyclohexan-1-ol and enantiomer thereof] |
| 28.5 | C[C@H]1Cc2c(cnn2[C@H]2C[C@@](C)(C#N)C2)-c2onc([C@@](C)(O)C(F)(F)F)c21 (racemic) [Example 57, (1R,3s)-1-methyl-3-((S)-4-methyl-3-((R)-1,1,1-trifluoro-2-hydroxypropan-2-yl)-4,5-dihydro-6H-isoxazolo[5,4-e]indazol-6-yl)cyclobutane-1-carbonitrile and enantiomer thereof] |
| 20.4 | C[C@H]1Cc2nn([C@H]3C[C@@](C)(C#N)C3)cc2-c2onc([C@@](C)(O)C(F)(F)F)c21 (racemic) [Example 58, (1R,3s)-1-methyl-3-((S)-4-methyl-3-((R)-1,1,1-trifluoro-2-hydroxypropan-2-yl)-4,5-dihydro-7H-isoxazolo[5,4-e]indazol-7-yl)cyclobutane-1-carbonitrile and enantiomer thereof] |
| 23.4 | C[C@H]1Cn2nc(C(F)(F)F)cc2-c2cnnc([C@@](C)(O)C(F)(F)F)c21 (racemic) [Example 99, mixture of (R)-1,1,1-trifluoro-2-((R)-5-methyl-9-(trifluoromethyl)-5,6-dihydropyrazolo[1′,5′:1,2]pyrido[3,4-d]pyridazin-4-yl)propan-2-ol and (S)-1,1,1-trifluoro-2-((S)-5-methyl-9-(trifluoromethyl)-5,6-dihydropyrazolo[1′,5′:1,2]pyrido[3,4-d]pyridazin-4-yl)propan-2-ol] |
